Assay results published in patent US8940701B2, “Compounds for, and methods of, treating cancer and inhibiting invasion and metastases” (The Regents of the University of Michigan, priority 2009, dated 2015).
“And” between values parts separate entries of the source, which are not always exact repeats. Identical values can stand only once. Like-named read-outs stand apart in the source and are kept apart here. Square brackets hold non-standard residues; d marks the D form. Peptide text beside a SMILES is read from it.

Columns and labels:
[1] = molecular target: T1, α5β1 integrin (Homo sapiens, UniProt P08648); experiment: competition with biotinylated PHSCN binding in SUM149PT cell extracts (blot); conditions: PhScN:PHSCN ratios 0:1, 1:1, 10:1, 50:1
From the text: In this experiment, biotinylated PHSCN peptide (Ac-PHSCNGGK(Bio)-NH2) (SEQ ID NO:18) was mixed with varying amounts of unlabeled Ac-PhScN—NH2 (SEQ ID NO:8). The mixed peptides were bound to detergent extracts of SUM149PT cells. A denaturing, non-reducing gel was run, blotted, and reacted with anti biotin primary antibody (FIG. 7). PhScN:PHSCN ratios were 0:1, 1:1, 10:1, or 50:1, as shown in lanes 2-5, respectively. Lane 1 contains the biotinylated α5β1 control. […] Thus, it is likely to interact with the same target site on α5 integrin as the PHSCN peptide. Alternatively PhScN binding could produce a structural or conformational change in the α5 subunit, such as a change in disulfide bonding pattern, that prevents binding of biotinylated PHSCN.

[2] = system: DU 145 prostate cancer; experiment: subcutaneous DU 145 tumors in nude mice, systemic therapy; assay type: in vivo, athymic nude mice
Description: In this example, PHSCN peptides, where two L-amino acids are substituted with D-amino acids, were tested in vivo. FIG. 6 compares the antitumorigenic effects of systemic Ac-PhScN—NH2 (SEQ ID NO:8) therapy at three different dosages (0.5, 0.05, and 0.005 micrograms per kg) with the antitumorigenic effects of 0.5 mg (500 micrograms) per kg of Ac-PHSCN—NH2 (SEQ ID NO:12) therapy using the DU 145 prostate cancer (as well as with untreated controls). The experiment involved generating subcutaneous DU 145 tumors in nude mice. More specifically, 500,000 suspended DU 145 cells were injected subcutaneously into the flanks of athymic nude mice. All mice were allowed to grow untreated DU 145 tumors in their flanks for about 8 weeks. All 3 therapies (i.e. using the three different dosages) were administered thrice-weekly by tail vein injection after the tumors became palpable. Each treatment group consisted of 8 intramuscular (flank) tumors. After 7 weeks of treatment, when the untreated tumors were very large, all mice were sacrificed at the same time, and all tumors dissected out and measured.

[3] = system: metastatic human breast (SUM 52 PE) and prostate (DU 145) cancer cell lines, human microvascular cells (hmvec); assay type: cell-based
Description: Some of the examples below employ an invasion assay utilizing naturally occurring basement membranes from 72 hour sea urchin embryos. Breast and prostate cancer invasion was induced with serum; hmvec invasion was induced with the PHSRN sequence of the plasma fibronectin (pFn) cell binding domain. The assay is described in U.S. Pat. No. 6,001,965, hereby incorporated by reference.
In this example, PHSCN peptides, where the sulfur of the SH group of cysteine was modified to block disulfide bond formation, were tested in an in vitro invasion assay utilizing naturally occurring basement membranes. More specifically, the invasion-inhibiting potencies of S-methylated and S-acetylated derivatives of the PHSCN (SEQ ID NO:1) peptide [i.e. Ac-PHSC(S—CH3)N—NH2 (SEQ ID NO:3) and Ac-PHSC(S—COCH3)N—NH2, (SEQ ID NO:4), respectively] were quantitated [in comparison with PHSCN (SEQ ID NO:1) dimerized by S—S bond formation] with two types of metastatic human cancer cell lines, i.e. a breast cell line (SUM 52 PE) and a prostate cell line (DU 145) (see FIG. 1 and FIG. 2, respectively). These modified peptides prevent breast cancer and prostate cancer invasion at concentrations in the pg/ml range.
In this example, PHSCN peptides, where two L-amino acids are substituted with D-amino acids, were tested in an in vitro invasion assay utilizing naturally occurring basement membranes. More specifically, the invasion-inhibiting potencies of Ac-PHScN—NH2 (SEQ ID NO:7), and Ac-PhScN—NH2 (SEQ ID NO:8) were quantitated [in comparison with Ac-PHSCN—NH2 (SEQ ID NO:12) as well as a scrambled peptide Ac-HSPNC—NH2 (SEQ ID NO:15)] with two types of metastatic human cancer cell lines, i.e. a breast cell line (SUM 52 PE) and a prostate cell line (DU 145) (see FIG. 3 and FIG. 4, respectively), as well as human microvascular cells (“hmvec”) (see FIG. 5). These modified peptides prevent breast cancer and prostate cancer invasion at concentrations in the pg/ml range.
Table I compares IC50's of Ac-PHSCN—NH2 (“PHSCN”) (SEQ ID NO:12), Ac-PhScN—NH2 (SEQ ID NO:8) (“PhScN”), Ac-PHScN—NH2 (SEQ ID NO:7) (“PHScN”), and the S-methylated and S-acetylated PHSCN derivatives [Ac-PHSC(S-Me)N—NH2 (SEQ ID NO:3) and Ac-PHSC(S—COCH3)N—NH2 (SEQ ID NO:4)]. The IC50 for PhScN is over 10,000-fold lower than that for PHSCN.

[4] = molecular target: T1, α5β1 integrin; experiment: surface α5β1 levels on irradiated pancreatic cancer cells (immunofluorescence); assay type: cell-based; set-up: surface α5β1 levels on irradiated pancreatic cancer cells; endogenous in cells; host or cells: Panc1 and BxPC-3 pancreatic cancer cells; conditions: 1 μg per ml prebound 1 hour; Panc1 2 Gy, BxPC-3 3 Gy; 1 hr and 2 hr
Description: In this example, antibodies are used to measure downregulation of surface α5β1 levels on irradiated pancreatic cancer cells. Cells were prebound to 1 μg per ml Ac-PHSCN—NH2 (SEQ ID NO:12) peptide per 20,000 cells in medium containing 10% fetal bovine serum for serum for 1 hour at 37° C. The peptide-containing medium was removed, and replaced with serum-containing medium, prior to irradiation. Adherent cells were irradiated once: 2 Gy for Panc1 cells, and 3 Gy for BxPC-3 cells. One hour after irradiation, cells were quickly rinsed with phosphate-buffered saline (PBS) pH 7.4), then fixed for 15 minutes in 4% Paraformaldahyde (commercially available from Fluka) in PBS at room temperature. […] After three PBS washes, cells were incubated in anti-mouse IgG secondary antibody, conjugated with fluorosceine isothiocyanate (FITC) fluorescence marker (commercially available from Jackson ImmunoResearch Lab, Inc) at 1:200 dilution for 1 h at room temperature. […]
Means and first standard deviations (SD) were calculated using Image-Pro Plus software over 30 areas per treatment selected randomly under 400-fold magnification, then copied and pasted on Microsoft Excel data sheets for further data analysis. All data (see FIG. 10) are expressed as mean±SD and evaluated with ANOVA Student t-test. […]

[5] = system: human breast and prostate cancer cell lines; conditions: systemic; cited from earlier work
[6] = system: Panc1 cells; experiment: invasion of irradiated cells on SU-ECM basement membranes; assay type: cell-based; conditions: 1 μg/ml peptide, single 2 Gy dose, 16 hours
Description: (§1) Adherent BxPC-3 and Panc1 cells were irradiated. Panc1 cells received a single 2 Gy dose. BxPC-3 cells received a single 3 Gy dose. Approximately 45 minutes later, the cells were suspended (trypsinized), pelleted and resuspended in medium containing 10% fetal calf serum. Then, the appropriate concentration of the Ac-PHSCN—NH2 (SEQ ID NO: 12) peptide, as well as a scrambled peptide Ac-HSPNC—NH2 (SEQ ID NO:15), was added to the suspended cells to make a final peptide concentration of 1 μg/ml, and they were dropped onto the surfaces of SU-ECM (sea urchin embryo basement membranes). At the time the cells were placed on the basement membranes, one hour had elapsed since irradiation. Cells were incubated on the basement membranes for 16 hours at 37° C. in 5% CO2, prior to scoring at 400-fold magnification, under phase contrast optics. All single cells adherent to the basement membranes were scored, with respect to whether they were inside the basement membranes (invaded), or were still adherent to the exterior surface (uninvaded). Mean invasion percentages were determined with their first standard deviations for each sample.

[7] = system: BxPC-3 cells; experiment: as above; assay type: cell-based; conditions: 1 μg/ml peptide, single 3 Gy dose, 16 hours
Description: as §1

[8] = system: end-stage human cancers; conditions: cited from earlier work
[9] = system: hmvec, normal human microvascular cells; conditions: cited from earlier work
[10] = system: DU 145 prostate cancer cells; conditions: 20 ug per ml, one hour preincubation, then irradiation

## CC(=O)N1CCC[C@H]1C(=O)N[C@H](Cc1c[nH]cn1)C(=O)N[C@@H](CO)C(=O)N[C@H](CS)C(=O)N[C@@H](CC(N)=O)C(N)=O [Ac-PhScN-NH2] (Ac-P[dH]S[dC]N-NH2)
[1]
  competition for biotinylated PHSCN binding to the α5 integrin subunit: efficient competitor
[2]; 0.5 μg/kg thrice-weekly by tail vein injection, 7 weeks of treatment
  visible tumor tissue after treatment: no tumor tissue was visible
[2]; mouse, in vivo
  potency as inhibitor of tumorigenesis in vivo relative to Ac-PHSCN—NH2: orders of magnitude more potent
[3]
  concentration range demonstrating inhibition of invasion: 3 to 10 pg/ml and 5.0 to 16.7 pM
  fold lower IC50 than that for PHSCN: over 10,000 fold
  invasion-inhibiting potency relative to comparators, in words: orders of magnitude more potent
[3]; 72 h
  IC50 (concentration exhibiting a 50% inhibition of invasion, relative to stimulated controls): 0.3 pg/mL

## Ac-PHSCN-NH2 [PHSCN, Ac-PHSCN—NH2]
[2]; 0.5 mg per kg thrice-weekly by tail vein injection, 7 weeks of treatment
  mean tumor diameter: untreated tumors fold larger relative to treated tumors: over 6 fold
[4]
  α5β1 expression on irradiated cancer cells: dramatically downregulated
[3]; 72 h
  IC50 (concentration exhibiting a 50% inhibition of invasion, relative to stimulated controls): 30,000 pg/ml
[5]
  concentration preventing metastatic disease progression: 1 to 2 µM
  dosage preventing metastatic disease progression: 0.5 to 50 mg/kg
[6]
  invasion after irradiation: reduced invasion to zero
[7]
  invasion after irradiation: reduced invasion to zero
[8]; human, in vivo
  adverse events: without significant adverse events
[8]; thrice-weekly systemic monotherapy
  time metastatic disease progression was prevented: 4 to 14 months
[9]
  potency at preventing hmvec invasion: equally potent

## PHSCNGGKMAP [PHSCNGGK-MAP (8), Ac-PHSCNGGK-MAP]
[3]; cell type not given
  IC50 (concentration exhibiting a 50% inhibition of invasion, relative to stimulated controls): 300 pg/mL
[10]
  enhancement ratio (MED control / MED with dendrimer): larger than one
